Results: ChEMBL document CHEMBL5113398, “Design and synthesis of new quinoline derivatives as selective C-RAF kinase inhibitors with potent anticancer activity” (Eur J Med Chem, 2022)

Tests used:
[1] = test system: HOP-62; experiment: Anticancer activity against human HOP-62 cells assessed as cell growth inhibition incubated for 48 hrs by SRB assay; format: functional
[2] = test system: Hs-578T; experiment: Anticancer activity against human Hs-578T cells assessed as total cell growth inhibition incubated for 48 hrs by SRB assay; format: functional
[3] = test system: MDA-MB-435; experiment: Anticancer activity against human MDA-MB-435 cells assessed as cell growth inhibition incubated for 48 hrs by SRB assay; format: functional
[4] = test system: CAKI-1; experiment: Anticancer activity against human CAKI-1 cells assessed as total cell growth inhibition incubated for 48 hrs by SRB assay; format: functional
[5] = test system: SNB-19; experiment: Anticancer activity against human SNB-19 cells assessed as total cell growth inhibition incubated for 48 hrs by SRB assay; format: functional
[6] = test system: M14; experiment: Anticancer activity against human M14 cells assessed as total cell growth inhibition incubated for 48 hrs by SRB assay; format: functional
[7] = test system: NCI-H23; experiment: Anticancer activity against human NCI-H23 cells assessed as cell growth inhibition incubated for 48 hrs by SRB assay; format: functional
[8] = test system: NCI/ADR-RES; experiment: Anticancer activity against human NCI/ADR-RES cells assessed as total cell growth inhibition incubated for 48 hrs by SRB assay; format: functional
[9] = test system: SK-MEL-5; experiment: Anticancer activity against human SK-MEL-5 cells assessed as cell growth inhibition incubated for 48 hrs by SRB assay; format: functional
[10] = test system: BT-549; experiment: Anticancer activity against human BT-549 cells assessed as cell growth inhibition incubated for 48 hrs by SRB assay; format: functional
[11] = test system: MDA-MB-468; experiment: Anticancer activity against human MDA-MB-468 cells assessed as total cell growth inhibition incubated for 48 hrs by SRB assay; format: functional
[12] = molecular target: RAF proto-oncogene serine/threonine-protein kinase (Homo sapiens, UniProt P04049); experiment: Inhibition of c-Raf (unknown origin) in presence of ATP by hotspot kinase assay
Sequence of RAF proto-oncogene serine/threonine-protein kinase (P04049 whole entry): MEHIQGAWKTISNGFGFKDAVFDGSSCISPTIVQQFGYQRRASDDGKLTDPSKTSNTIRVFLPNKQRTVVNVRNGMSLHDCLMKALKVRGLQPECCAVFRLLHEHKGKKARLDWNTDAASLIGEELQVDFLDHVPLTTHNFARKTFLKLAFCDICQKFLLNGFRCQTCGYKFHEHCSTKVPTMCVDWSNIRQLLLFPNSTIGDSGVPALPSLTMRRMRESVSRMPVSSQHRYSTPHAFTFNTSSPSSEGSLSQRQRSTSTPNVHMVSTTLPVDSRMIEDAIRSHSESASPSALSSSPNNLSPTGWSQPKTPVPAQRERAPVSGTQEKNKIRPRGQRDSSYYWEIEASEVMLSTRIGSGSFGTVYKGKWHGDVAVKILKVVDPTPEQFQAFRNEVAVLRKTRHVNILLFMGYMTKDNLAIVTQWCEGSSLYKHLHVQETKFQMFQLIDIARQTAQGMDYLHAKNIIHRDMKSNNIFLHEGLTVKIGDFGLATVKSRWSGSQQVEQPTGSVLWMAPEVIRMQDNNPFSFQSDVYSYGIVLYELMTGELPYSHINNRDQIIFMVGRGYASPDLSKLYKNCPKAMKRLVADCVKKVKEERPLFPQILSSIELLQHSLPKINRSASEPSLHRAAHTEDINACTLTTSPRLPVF

[13] = test system: KM12; experiment: Anticancer activity against human KM12 cells assessed as cell growth inhibition incubated for 48 hrs by SRB assay; format: functional
[14] = test system: T47D; experiment: Anticancer activity against human T47D cells assessed as cell growth inhibition incubated for 48 hrs by SRB assay; format: functional
[15] = test system: MCF7; experiment: Anticancer activity against human MCF7 cells assessed as cell growth inhibition incubated for 48 hrs by SRB assay; format: functional
[16] = test system: HOP-92; experiment: Anticancer activity against human HOP-92 cells assessed as total cell growth inhibition incubated for 48 hrs by SRB assay; format: functional
[17] = test system: EKVX; experiment: Anticancer activity against human EKVX cells assessed as cell growth inhibition incubated for 48 hrs by SRB assay; format: functional
[18] = test system: U-251; experiment: Anticancer activity against human U-251 cells assessed as cell growth inhibition incubated for 48 hrs by SRB assay; format: functional
[19] = test system: SF-295; experiment: Anticancer activity against human SF-295 cells assessed as total cell growth inhibition incubated for 48 hrs by SRB assay; format: functional
[20] = test system: SK-OV-3; experiment: Anticancer activity against human SK-OV-3 cells assessed as total cell growth inhibition incubated for 48 hrs by SRB assay; format: functional
[21] = test system: SK-MEL-28; experiment: Anticancer activity against human SK-MEL-28 cells assessed as total cell growth inhibition incubated for 48 hrs by SRB assay; format: functional
[22] = test system: K562; experiment: Anticancer activity against human K562 cells assessed as total cell growth inhibition incubated for 48 hrs by SRB assay; format: functional
[23] = test system: SW-620; experiment: Anticancer activity against human SW-620 cells assessed as cell growth inhibition incubated for 48 hrs by SRB assay; format: functional
[24] = test system: 786-0; experiment: Anticancer activity against human 786-0 cells assessed as cell growth inhibition incubated for 48 hrs by SRB assay; format: functional
[25] = test system: SF-539; experiment: Anticancer activity against human SF-539 cells assessed as cell growth inhibition incubated for 48 hrs by SRB assay; format: functional
[26] = test system: SK-MEL-5; experiment: Anticancer activity against human SK-MEL-5 cells assessed as total cell growth inhibition incubated for 48 hrs by SRB assay; format: functional
[27] = test system: Serine/threonine-protein kinase B-raf (Homo sapiens), P15056 [V600E]; experiment: Inhibition of B-RAF V600E mutant (unknown origin) at 1 uM in presence of ATP by hotspot kinase assay
Sequence of Serine/threonine-protein kinase B-raf (Homo sapiens), P15056 [V600E] (P15056 whole entry V600E): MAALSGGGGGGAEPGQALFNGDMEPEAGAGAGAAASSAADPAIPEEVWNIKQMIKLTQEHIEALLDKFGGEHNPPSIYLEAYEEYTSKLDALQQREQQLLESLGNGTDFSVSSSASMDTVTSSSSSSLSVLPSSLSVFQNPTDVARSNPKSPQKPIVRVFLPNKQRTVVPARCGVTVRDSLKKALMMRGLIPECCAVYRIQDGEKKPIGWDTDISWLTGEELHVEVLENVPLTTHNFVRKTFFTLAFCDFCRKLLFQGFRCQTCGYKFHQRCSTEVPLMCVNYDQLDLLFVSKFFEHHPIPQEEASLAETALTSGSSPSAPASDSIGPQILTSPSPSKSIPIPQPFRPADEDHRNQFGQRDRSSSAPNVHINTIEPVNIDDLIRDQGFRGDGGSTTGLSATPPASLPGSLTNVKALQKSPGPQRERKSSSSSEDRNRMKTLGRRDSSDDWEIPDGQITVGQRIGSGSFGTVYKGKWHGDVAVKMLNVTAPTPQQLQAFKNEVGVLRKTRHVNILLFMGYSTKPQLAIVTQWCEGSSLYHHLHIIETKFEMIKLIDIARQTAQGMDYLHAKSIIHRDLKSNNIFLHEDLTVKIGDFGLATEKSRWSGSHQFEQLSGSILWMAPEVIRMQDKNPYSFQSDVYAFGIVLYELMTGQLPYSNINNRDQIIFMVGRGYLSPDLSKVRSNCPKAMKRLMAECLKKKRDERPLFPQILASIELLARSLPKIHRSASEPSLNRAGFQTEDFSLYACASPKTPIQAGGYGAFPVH

[28] = molecular target: Vascular endothelial growth factor receptor 2 (Homo sapiens) (UniProt P35968); experiment: Inhibition of KDR (unknown origin) at 1 uM in presence of ATP by hotspot kinase assay
Sequence of Vascular endothelial growth factor receptor 2 (Homo sapiens) (P35968 whole entry): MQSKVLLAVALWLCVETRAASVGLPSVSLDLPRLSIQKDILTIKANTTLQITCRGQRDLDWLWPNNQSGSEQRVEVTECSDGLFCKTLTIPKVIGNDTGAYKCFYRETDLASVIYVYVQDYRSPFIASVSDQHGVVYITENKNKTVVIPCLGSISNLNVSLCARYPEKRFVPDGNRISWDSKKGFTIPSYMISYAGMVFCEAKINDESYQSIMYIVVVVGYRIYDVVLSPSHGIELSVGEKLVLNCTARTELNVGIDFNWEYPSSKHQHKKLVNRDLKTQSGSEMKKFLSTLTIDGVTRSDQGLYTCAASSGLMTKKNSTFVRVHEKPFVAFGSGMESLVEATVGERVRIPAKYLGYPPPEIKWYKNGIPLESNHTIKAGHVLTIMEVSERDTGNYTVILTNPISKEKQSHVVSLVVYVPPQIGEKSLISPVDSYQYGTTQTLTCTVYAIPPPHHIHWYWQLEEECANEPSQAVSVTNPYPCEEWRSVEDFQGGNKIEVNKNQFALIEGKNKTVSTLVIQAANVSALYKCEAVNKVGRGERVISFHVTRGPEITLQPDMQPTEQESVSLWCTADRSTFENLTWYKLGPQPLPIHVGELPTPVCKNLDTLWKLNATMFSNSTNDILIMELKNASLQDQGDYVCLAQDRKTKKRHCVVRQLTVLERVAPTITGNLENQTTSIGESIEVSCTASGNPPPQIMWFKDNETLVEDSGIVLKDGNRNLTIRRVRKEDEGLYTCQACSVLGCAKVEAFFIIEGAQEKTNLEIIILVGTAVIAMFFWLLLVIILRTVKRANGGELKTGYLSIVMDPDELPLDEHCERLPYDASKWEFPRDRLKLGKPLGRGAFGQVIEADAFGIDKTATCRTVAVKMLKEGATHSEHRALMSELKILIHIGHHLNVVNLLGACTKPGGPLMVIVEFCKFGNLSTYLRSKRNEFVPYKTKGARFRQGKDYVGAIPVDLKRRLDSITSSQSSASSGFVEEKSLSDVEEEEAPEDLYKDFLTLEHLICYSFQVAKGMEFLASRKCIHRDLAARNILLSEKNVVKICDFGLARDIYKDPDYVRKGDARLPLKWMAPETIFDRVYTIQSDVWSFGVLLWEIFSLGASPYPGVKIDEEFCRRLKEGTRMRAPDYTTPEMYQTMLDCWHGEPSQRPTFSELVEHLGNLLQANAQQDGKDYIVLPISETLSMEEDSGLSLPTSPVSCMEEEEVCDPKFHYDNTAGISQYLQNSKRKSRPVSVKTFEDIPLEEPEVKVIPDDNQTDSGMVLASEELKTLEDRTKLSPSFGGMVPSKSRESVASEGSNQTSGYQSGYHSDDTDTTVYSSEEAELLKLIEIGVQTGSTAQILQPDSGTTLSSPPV

[29] = test system: K562; experiment: Anticancer activity against human K562 cells assessed as cell growth inhibition incubated for 48 hrs by SRB assay; format: functional
[30] = test system: SNB-75; experiment: Anticancer activity against human SNB-75 cells assessed as cell growth inhibition incubated for 48 hrs by SRB assay; format: functional
[31] = test system: NCI-H226; experiment: Anticancer activity against human NCI-H226 cells assessed as total cell growth inhibition incubated for 48 hrs by SRB assay; format: functional
[32] = test system: BT-549; experiment: Anticancer activity against human BT-549 cells assessed as total cell growth inhibition incubated for 48 hrs by SRB assay; format: functional
[33] = test system: UO-31; experiment: Anticancer activity against human UO-31 cells assessed as total cell growth inhibition incubated for 48 hrs by SRB assay; format: functional
[34] = test system: NCI-H522; experiment: Anticancer activity against human NCI-H522 cells assessed as total cell growth inhibition incubated for 48 hrs by SRB assay; format: functional
[35] = test system: IGROV-1; experiment: Anticancer activity against human IGROV-1 cells assessed as cell growth inhibition incubated for 48 hrs by SRB assay; format: functional
[36] = test system: OVCAR-4; experiment: Anticancer activity against human OVCAR-4 cells assessed as total cell growth inhibition incubated for 48 hrs by SRB assay; format: functional
[37] = test system: DU-145; experiment: Anticancer activity against human DU-145 cells assessed as cell growth inhibition incubated for 48 hrs by SRB assay; format: functional
[38] = test system: CCRF-CEM; experiment: Anticancer activity against human CCRF-CEM cells assessed as total cell growth inhibition incubated for 48 hrs by SRB assay; format: functional
[39] = test system: SK-MEL-2; experiment: Anticancer activity against human SK-MEL-2 cells assessed as cell growth inhibition incubated for 48 hrs by SRB assay; format: functional
[40] = molecular target: Serine/threonine-protein kinase B-raf (Homo sapiens) (UniProt P15056); experiment: Inhibition of wild type B-RAF (unknown origin) at 1 uM in presence of ATP by hotspot kinase assay
Sequence of Serine/threonine-protein kinase B-raf (Homo sapiens) (P15056 whole entry): as the sequence (P15056 whole entry V600E) above, with E600V counted along it

[41] = test system: 786-0; experiment: Anticancer activity against human 786-0 cells assessed as total cell growth inhibition incubated for 48 hrs by SRB assay; format: functional
[42] = molecular target: Epidermal growth factor receptor (Homo sapiens) (UniProt P00533); experiment: Inhibition of EGFR (unknown origin) at 1 uM in presence of ATP by hotspot kinase assay
Sequence of Epidermal growth factor receptor (Homo sapiens) (P00533 whole entry): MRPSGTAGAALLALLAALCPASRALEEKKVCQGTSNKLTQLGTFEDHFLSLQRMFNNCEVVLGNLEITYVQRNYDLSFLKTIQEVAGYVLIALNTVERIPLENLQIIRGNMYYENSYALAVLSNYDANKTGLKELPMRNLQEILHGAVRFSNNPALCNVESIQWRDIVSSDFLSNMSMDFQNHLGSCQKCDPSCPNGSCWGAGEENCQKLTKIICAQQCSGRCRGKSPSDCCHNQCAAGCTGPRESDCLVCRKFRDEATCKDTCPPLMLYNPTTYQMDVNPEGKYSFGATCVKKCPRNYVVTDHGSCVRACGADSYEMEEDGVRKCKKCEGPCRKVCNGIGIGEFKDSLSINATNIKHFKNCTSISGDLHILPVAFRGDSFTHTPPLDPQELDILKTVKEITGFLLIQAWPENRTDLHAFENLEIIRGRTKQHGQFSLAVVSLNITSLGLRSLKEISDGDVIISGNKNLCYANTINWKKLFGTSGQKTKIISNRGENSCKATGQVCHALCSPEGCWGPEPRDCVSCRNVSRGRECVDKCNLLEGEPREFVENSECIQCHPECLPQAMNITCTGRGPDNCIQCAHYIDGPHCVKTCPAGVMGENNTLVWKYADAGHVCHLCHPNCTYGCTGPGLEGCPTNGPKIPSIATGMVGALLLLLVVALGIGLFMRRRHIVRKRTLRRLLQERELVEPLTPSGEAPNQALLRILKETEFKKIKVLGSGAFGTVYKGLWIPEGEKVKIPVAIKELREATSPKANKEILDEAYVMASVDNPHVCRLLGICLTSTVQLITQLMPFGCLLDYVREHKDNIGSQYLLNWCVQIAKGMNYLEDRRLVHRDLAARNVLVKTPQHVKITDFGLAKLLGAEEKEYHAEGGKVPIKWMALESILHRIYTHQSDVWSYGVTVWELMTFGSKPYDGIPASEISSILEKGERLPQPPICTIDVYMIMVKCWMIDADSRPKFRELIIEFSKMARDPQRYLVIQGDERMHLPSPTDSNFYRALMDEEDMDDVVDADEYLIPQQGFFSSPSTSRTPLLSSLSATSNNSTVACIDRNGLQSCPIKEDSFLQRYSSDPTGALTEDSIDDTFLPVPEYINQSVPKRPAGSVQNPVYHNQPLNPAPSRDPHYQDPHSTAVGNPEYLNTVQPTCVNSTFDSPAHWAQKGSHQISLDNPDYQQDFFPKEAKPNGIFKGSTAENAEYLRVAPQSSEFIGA

[43] = test system: SF-268; experiment: Anticancer activity against human SF-268 cells assessed as total cell growth inhibition incubated for 48 hrs by SRB assay; format: functional
[44] = test system: Hs-578T; experiment: Anticancer activity against human Hs-578T cells assessed as cell growth inhibition incubated for 48 hrs by SRB assay; format: functional
[45] = test system: CCRF-CEM; experiment: Anticancer activity against human CCRF-CEM cells assessed as cell growth inhibition incubated for 48 hrs by SRB assay; format: functional
[46] = test system: MDA-MB-231; experiment: Anticancer activity against human MDA-MB-231 cells assessed as total cell growth inhibition incubated for 48 hrs by SRB assay; format: functional
[47] = test system: MDA-MB-435; experiment: Anticancer activity against human MDA-MB-435 cells assessed as total cell growth inhibition incubated for 48 hrs by SRB assay; format: functional

## COc1cc2cc(Oc3ccc(NC(=O)Nc4ccc(F)c(C(F)(F)F)c4)cc3)c(C)nc2cc1OCCN1CCOCC1
[1]
  GI50: 3.99 µM
[2]
  TGI: 8.9 µM
[3]
  GI50: 1.91 µM
[4]
  TGI: 9.55 µM
[5]
  TGI: 19.3 µM
[6]
  TGI: 3.31 µM
[7]
  GI50: 1.43 µM
[8]
  TGI: 12.1 µM
[9]
  GI50: 1.14 µM
[10]
  GI50: 2.44 µM
[11]
  TGI: 10.4 µM
[12]
  IC50: 0.067 µM
[13]
  GI50: 2.69 µM
[14]
  GI50: 1.91 µM
[15]
  GI50: 1.46 µM
[16]
  TGI: 4.96 µM
[17]
  GI50: 2.53 µM
[18]
  GI50: 2.83 µM
[19]
  TGI: 4.22 µM
[20]
  TGI: 26.7 µM
[21]
  TGI: 3.13 µM
[22]
  TGI: 10.3 µM
[23]
  GI50: 3.34 µM
[24]
  GI50: 1.73 µM
[25]
  GI50: 1.77 µM
[26]
  TGI: 2.36 µM
[27]
  inhibition: 24.8%
[28]
  inhibition: -2.9%
[29]
  GI50: 0.88 µM
[30]
  GI50: 1.96 µM
[31]
  TGI: 13.2 µM
[32]
  TGI: 8.46 µM
[33]
  TGI: 10.6 µM
[34]
  TGI: 9.43 µM
[35]
  GI50: 2.69 µM
[36]
  TGI: 5.23 µM
[37]
  GI50: 3.5 µM
[38]
  TGI: 11.5 µM
[39]
  GI50: 2.38 µM
[40]
  inhibition: 23.7%
[41]
  TGI: 3.44 µM
[42]
  inhibition: 1.43%
[43]
  TGI: 19.8 µM
[44]
  GI50: 2.12 µM
[45]
  GI50: 1.72 µM
[46]
  TGI: 9.02 µM
[47]
  TGI: 3.9 µM

## COc1cc2cc(Oc3ccc(NC(=O)Nc4cc(C(F)(F)F)cc(C(F)(F)F)c4)cc3)c(C)nc2cc1OCCN1CCOCC1
[1]
  GI50: 2.2 µM
[2]
  TGI: 7 µM
[3]
  GI50: 1.9 µM
[4]
  TGI: 5.68 µM
[5]
  TGI: 7.42 µM
[6]
  TGI: 5.88 µM
[7]
  GI50: 1.66 µM
[8]
  TGI: 7.21 µM
[9]
  GI50: 0.89 µM
[10]
  GI50: 1.87 µM
[11]
  TGI: 3.76 µM
[12]
  IC50: 0.193 µM
[13]
  GI50: 1.53 µM
[14]
  GI50: 2.04 µM
[15]
  GI50: 1.43 µM
[16]
  TGI: 2.71 µM
[17]
  GI50: 1.64 µM
[18]
  GI50: 1.13 µM
[19]
  TGI: 2.92 µM
[20]
  TGI: 8.5 µM
[21]
  TGI: 6.94 µM
[22]
  TGI: 5.5 µM
[23]
  GI50: 1.72 µM
[24]
  GI50: 1.28 µM
[25]
  GI50: 1.54 µM
[26]
  TGI: 1.66 µM
[27]
  inhibition: 34.6%
[28]
  inhibition: 4.5%
[29]
  GI50: 1.41 µM
[30]
  GI50: 1.02 µM
[31]
  TGI: 6.53 µM
[32]
  TGI: 7.35 µM
[33]
  TGI: 4.06 µM
[34]
  TGI: 7.29 µM
[35]
  GI50: 1.54 µM
[36]
  TGI: 6.95 µM
[37]
  GI50: 1.93 µM
[38]
  TGI: 6.57 µM
[39]
  GI50: 1.74 µM
[40]
  inhibition: 26.5%
[41]
  TGI: 3.65 µM
[42]
  inhibition: 3.62%
[43]
  TGI: 8.06 µM
[44]
  GI50: 1.56 µM
[45]
  GI50: 1.41 µM
[46]
  TGI: 6.45 µM
[47]
  TGI: 6.72 µM

## COc1cc2cc(Oc3ccc(NC(=O)Nc4ccc(Cl)c(C(F)(F)F)c4)cc3)c(C)nc2cc1OCCN1CCOCC1
[1]
  GI50: 2.05 µM
[2]
  TGI: 5.11 µM
[3]
  GI50: 1.94 µM
[4]
  TGI: 10.8 µM
[5]
  TGI: 19.8 µM
[6]
  TGI: 3.45 µM
[7]
  GI50: 1.12 µM
[8]
  TGI: 12.6 µM
[9]
  GI50: 1.15 µM
[10]
  GI50: 2.63 µM
[11]
  TGI: 2.06 µM
[12]
  IC50: 0.082 µM
[13]
  GI50: 5.3 µM
[14]
  GI50: 1.32 µM
[15]
  GI50: 1.26 µM
[16]
  TGI: 6.17 µM
[17]
  GI50: 2.07 µM
[18]
  GI50: 1.76 µM
[19]
  TGI: 2.85 µM
[20]
  TGI: 17.5 µM
[21]
  TGI: 3.12 µM
[22]
  TGI: 6.95 µM
[23]
  GI50: 5.52 µM
[24]
  GI50: 1.89 µM
[25]
  GI50: 1.68 µM
[26]
  TGI: 2.37 µM
[27]
  inhibition: 28.5%
[28]
  inhibition: 1.56%
[29]
  GI50: 0.67 µM
[30]
  GI50: 1.65 µM
[31]
  TGI: 5.91 µM
[32]
  TGI: 9.33 µM
[33]
  TGI: 3.34 µM
[34]
  TGI: 4.07 µM
[35]
  GI50: 2.43 µM
[36]
  TGI: 3.41 µM
[37]
  GI50: 2.69 µM
[38]
  TGI: > 100 µM
[39]
  GI50: 1.65 µM
[40]
  inhibition: 31.6%
[41]
  TGI: 4.15 µM
[42]
  inhibition: -2.4%
[43]
  TGI: 8.44 µM
[44]
  GI50: 1.83 µM
[45]
  GI50: 1.45 µM
[46]
  TGI: 5.07 µM
[47]
  TGI: 4.1 µM
